Reference: patent publication US12673944B2, “Compounds having inhibitory activity against glucosylceramide synthase or pharmaceutically acceptable salt thereof, processes for preparing the same, and pharmaceutical compositions comprising the same” (YUHAN CORPORATION, priority 2019, dated 2026)
Like-named read-outs stand apart in the source and are kept apart here.

What was measured:
[1] = biological target: T1, glucosylceramide synthase (GCS) (Homo sapiens, UniProt Q16739); assay: GCS enzyme inhibition assay (A549 cell lysate, NBD C6-ceramide, HPLC fluorescence); assay type: biochemical; details: inhibitory activity against GCS, 37° C., 90 minutes
T1 construct: The obtained supernatant was used; host or cells: A549 cells (lysate supernatant after sonication)
T1 sequence (Q16739 1-394): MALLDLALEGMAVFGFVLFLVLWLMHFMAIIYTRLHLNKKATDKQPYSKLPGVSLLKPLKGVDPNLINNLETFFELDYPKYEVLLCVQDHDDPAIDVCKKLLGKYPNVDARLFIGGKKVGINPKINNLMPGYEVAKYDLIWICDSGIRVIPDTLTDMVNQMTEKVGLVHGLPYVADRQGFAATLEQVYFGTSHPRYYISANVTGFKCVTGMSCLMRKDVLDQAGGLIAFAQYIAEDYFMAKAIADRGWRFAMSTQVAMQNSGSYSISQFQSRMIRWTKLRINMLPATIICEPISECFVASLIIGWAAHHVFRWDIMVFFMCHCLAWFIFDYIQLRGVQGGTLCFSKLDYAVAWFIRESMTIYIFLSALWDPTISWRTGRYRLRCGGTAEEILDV
Method: Ibiglustat, known as a GCS inhibitor, was used as a control.
After the cells attached to the culture dish were washed with phosphate buffered saline (PBS), the cells were scraped off with a cell scraper and then centrifuged (4000 rpm, 3 min, 4° C.) to collect the cells in a 50 ml tube. The cell pellets were suspended in a lysis buffer (50 mM HEPES, pH 7.3, containing 1× the protease/phosphatase inhibitor cocktail), lysed by sonication, and then the lysate was centrifuged (13000 rpm, 10 min, 4° C.). The obtained supernatant was used for the quantitative analysis of proteins. The amount of proteins was measured using the BCA protein assay kit, using bovine serum albumin as a standard.
Enzymatic reactions were initiated by sequentially adding the following reaction materials to a 96 deep-well plate. Thereafter, the enzymatic reactions were performed at 37° C. for 90 minutes.
The enzymatic reactions were stopped by adding 100 μl of chloroform/methanol (2:1, v/v). After vortexing for 15 seconds, each mixture was centrifuged (4000 rpm, 10 min, 18° C.). The lower layer (50 μl) was transferred to a new 96 deep-well plate and dried with a reduced concentrator.
Data analysis was performed by the following equations. % Area(Sample)=Area(GlcCer)/[Area(Cer)+Area(GlcCer)]×100 % GCS activity=[Area(Sample)−Area(ibiglustat)]/[Area(DMSO)−Area(ibiglustat)]×100

[2] = system: GM1 production in Jurkat cells; assay: cells; assay type: cell-based

Row | Structure (SMILES) | IC50 [1] | IC50 ([2]; Homo sapiens, Jurkat, 72 h) | IC50 ([2]; read-out: IC50)
1 | CC1(C)COc2cc(-c3ccccc3Cl)ccc2C1NC(=O)O[C@@H]1CN2CCC1CC2 (stereo partly drawn) [Example 169, (S)-quinuclidin-3-yl (7-(2-chlorophenyl)-3,3-dimethylchroman-4-yl)carbamate] | 0.37 nM | 0.25 nM | 
2 | CC1(C)COc2cc(Cc3ccccc3)ccc2C1NC(=O)O[C@@H]1CN2CCC1CC2 (stereo partly drawn) [Example 267, (S)-quinuclidin-3-yl (7-benzyl-3,3-dimethylchroman-4-yl)carbamate] | 1.48 nM | 9.1 nM | 
3 | CC1(C)COc2cc(-c3ccc(Cl)cc3Cl)ccc2C1NC(=O)O[C@@H]1CN2CCC1CC2 (stereo partly drawn) [Example 230, (S)-quinuclidin-3-yl (7-(2,4-dichlorophenyl)-3,3-dimethylchroman-4-yl)carbamate] | 0.86 nM | 0.8 nM | 
4 | CN1CCC(NC(=O)O[C@@H]2CN3CCC2CC3)c2ccc(-c3coc4ccccc34)cc21 (stereo partly drawn) [Example 315, (S)-quinuclidin-3-yl (7-(benzofuran-3-yl)-1-methyl-1,2,3,4-tetrahydroquinolin-4-yl)carbamate] | 14.7 nM | 58.1 nM | 
5 | CC1(C)COc2cc(/C=C/c3ccsc3)ccc2C1NC(=O)O[C@@H]1CN2CCC1CC2 (stereo partly drawn) [Example 271, (S)-quinuclidin-3-yl (3,3-dimethyl-7-((E)-2-(thiophen-3-yl)vinyl)chroman-4-yl)carbamate] | 1.26 nM | 9 nM | 
6 | CC1(C)COc2cc(-c3cnn(Cc4ccccc4)c3)ccc2C1NC(=O)O[C@@H]1CN2CCC1CC2 (stereo partly drawn) [Example 180, (S)-quinuclidin-3-yl (7-(1-benzyl-1H-pyrazol-4-yl)-3,3-dimethylchroman-4-yl)carbamate] | 0.44 nM | 3.42 nM | 
7 | CC1(C)COc2cc(-c3ccc(C(F)(F)F)cc3F)ccc2C1NC(=O)O[C@@H]1CN2CCC1CC2 (stereo partly drawn) [Example 262, (S)-quinuclidin-3-yl (7-(2-fluoro-4-(trifluoromethyl)phenyl)-3,3-dimethylchroman-4-yl)carbamate] | 0.52 nM | 3.7 nM | 
8 | O=C(NC1CCOc2cc(-c3ccc(F)cc3)ccc21)O[C@@H]1CN2CCC1CC2 (stereo partly drawn) [Example 13, (S)-quinuclidin-3-yl (7-(4-fluorophenyl)chroman-4-yl)carbamate] | 8.54 nM | 42.8 nM | 
9 | CC1(C)COc2cc(-c3ccc(C4CC4)cc3)ccc2C1NC(=O)O[C@@H]1CN2CCC1CC2 (stereo partly drawn) [Example 161, (S)-quinuclidin-3-yl (7-(4-cyclopropylphenyl)-3,3-dimethylchroman-4-yl)carbamate] | 0.38 nM | 0.18 nM | 
10 | CC1(C)COc2cc(-c3cncs3)ccc2C1NC(=O)O[C@@H]1CN2CCC1CC2 (stereo partly drawn) [Example 243, (S)-quinuclidin-3-yl (3,3-dimethyl-7-(thiazol-5-yl)chroman-4-yl)carbamate] | 1.9 nM | 24.1 nM | 
11 | CC(C)(C)c1cccc(-c2ccc3c(c2)OCC(C)(C)C3NC(=O)O[C@@H]2CN3CCC2CC3)c1 (stereo partly drawn) [Example 152, (S)-quinuclidin-3-yl (7-(3-(tert-butyl)phenyl)-3,3-dimethylchroman-4-yl)carbamate] | 0.91 nM | 0.22 nM | 
12 | CC1(C)CSc2ccc(-c3ccc(C(F)(F)F)cc3)cc2C1NC(=O)O[C@@H]1CN2CCC1CC2 (stereo partly drawn) [Example 329, (S)-quinuclidin-3-yl (3,3-dimethyl-6-(4-(trifluoromethyl)phenyl)thiochroman-4-yl)carbamate] | 14.9 nM | 33.8 nM | 
13 | O=C(NC1CCOc2ccc(-c3cccc(OC(F)(F)F)c3)cc21)O[C@@H]1CN2CCC1CC2 (stereo partly drawn) [Example 95, (S)-quinuclidin-3-yl (6-(3-(trifluoromethoxy)phenyl)chroman-4-yl)carbamate] | 19.8 nM | 513 nM | 
14 | COCOc1ccccc1-c1ccc2c(c1)OCCC2NC(=O)O[C@@H]1CN2CCC1CC2 (stereo partly drawn) [Example 5, (S)-quinuclidin-3-yl (7-(2-(methoxymethoxy)phenyl)chroman-4-yl)carbamate] | 3.71 nM | 29.2 nM | 
15 | CCOc1cc(-c2ccc3c(c2)OCC(C)(C)C3NC(=O)O[C@@H]2CN3CCC2CC3)c(Cl)cc1Cl (stereo partly drawn) [Example 134, (S)-quinuclidin-3-yl (7-(2,4-dichloro-5-ethoxyphenyl)-3,3-dimethylchroman-4-yl)carbamate] | 2.83 nM | 12.7 nM | 
16 | O=C(NC1CCOc2cc(-c3ccc(OC(F)(F)F)cc3)ccc21)O[C@@H]1CN2CCC1CC2 (stereo partly drawn) [Example 16, (S)-quinuclidin-3-yl (7-(4-(trifluoromethoxy)phenyl)chroman-4-yl)carbamate] | 9.4 nM | 27.8 nM | 
17 | COc1ccc(-c2cc3c(cc2OC)C(NC(=O)O[C@@H]2CN4CCC2CC4)C(C)(C)CO3)c(C)c1 (stereo partly drawn) [Example 361, (S)-quinuclidin-3-yl (6-methoxy-7-(4-methoxy-2-methylphenyl)-3,3-dimethylchroman-4-yl)carbamate] | 0.99 nM | 8.5 nM | 
18 | O=C(NC1CCOc2cc(-c3cc(Cl)cc(C(F)(F)F)c3)ccc21)O[C@@H]1CN2CCC1CC2 (stereo partly drawn) [Example 34, (S)-quinuclidin-3-yl (7-(3-chloro-5-(trifluoromethyl)phenyl)chroman-4-yl)carbamate] | 1.97 nM | 5.97 nM | 
19 | COc1cc2c(cc1-c1ccc(OC(C)C)nc1)OCC(C)(C)C2NC(=O)O[C@@H]1CN2CCC1CC2 (stereo partly drawn) [Example 367, (S)-quinuclidin-3-yl (7-(6-isopropoxypyridin-3-yl)-6-methoxy-3,3-dimethylchroman-4-yl)carbamate] | 0.22 nM | 3.2 nM | 
20 | CC1(C)COc2cc(-c3ccc(Cl)c(Cl)c3)ccc2C1NC(=O)O[C@@H]1CN2CCC1CC2 (stereo partly drawn) [Example 195, (S)-quinuclidin-3-yl (7-(3,4-dichlorophenyl)-3,3-dimethylchroman-4-yl)carbamate] | 1.14 nM | 1.39 nM | 
21 | COc1cccc(-c2ccc3c(c2)OCC(C)(C)C3NC(=O)O[C@@H]2CN3CCC2CC3)n1 (stereo partly drawn) [Example 246, (S)-quinuclidin-3-yl (7-(6-methoxypyridin-2-yl)-3,3-dimethylchroman-4-yl)carbamate] | 0.75 nM | 1.3 nM | 
22 | CCCCc1ccc(-c2cc3c(cc2OC)C(NC(=O)O[C@@H]2CN4CCC2CC4)C(C)(C)CO3)cc1 (stereo partly drawn) [Example 362, (S)-quinuclidin-3-yl (7-(4-butylphenyl)-6-methoxy-3,3-dimethylchroman-4-yl)carbamate] | 0.11 nM | 0.7 nM | 
23 | CC1(C)COc2ccc(-c3cccc(F)c3)cc2C1NC(=O)O[C@@H]1CN2CCC1CC2 (stereo partly drawn) [Example 101, (S)-quinuclidin-3-yl (6-(3-fluorophenyl)-3,3-dimethylchroman-4-yl)carbamate] | 9.2 nM | 65.9 nM | 
24 | CCCCc1ccc(-c2ccc3c(c2)OCC(C)(C)C3NC(=O)O[C@@H]2CN3CCC2CC3)cc1 (stereo partly drawn) [Example 256, (S)-quinuclidin-3-yl (7-(4-butylphenyl)-3,3-dimethylchroman-4-yl)carbamate] | 0.39 nM | 0.2 nM | 
25 | COc1cccc(-c2ccc3c(c2)OCC(C)(C)C3NC(=O)O[C@@H]2CN3CCC2CC3)c1Cl (stereo partly drawn) [Example 176, (S)-quinuclidin-3-yl (7-(2-chloro-3-methoxyphenyl)-3,3-dimethylchroman-4-yl)carbamate] | 0.59 nM | 3.2 nM | 
26 | CC1(C)COc2cc(-c3ccc4nsnc4c3)ccc2C1NC(=O)O[C@@H]1CN2CCC1CC2 (stereo partly drawn) [Example 191, (S)-quinuclidin-3-yl (7-(benzo[c][1,2,5]thiadiazol-5-yl)-3,3-dimethylchroman-4-yl)carbamate] | 0.63 nM | 0.31 nM | 
27 | CC1(C)COc2cc(-c3cccc4ncccc34)ccc2C1NC(=O)O[C@@H]1CN2CCC1CC2 (stereo partly drawn) [Example 219, (S)-quinuclidin-3-yl (3,3-dimethyl-7-(quinolin-5-yl)chroman-4-yl)carbamate] | 2.26 nM | 7.58 nM | 
28 | Cn1ncc2c(-c3ccc4c(c3)OCCC4NC(=O)O[C@@H]3CN4CCC3CC4)cccc21 (stereo partly drawn) [Example 51, (S)-quinuclidin-3-yl (7-(1-methyl-1H-indazol-4-yl)chroman-4-yl)carbamate] | 1.02 nM | 4.99 nM | 
29 | CC1(C)CC(NC(=O)O[C@@H]2CN3CCC2CC3)c2cc(-c3cccc(F)c3)ccc2O1 (stereo partly drawn) [Example 294, (S)-quinuclidin-3-yl (6-(3-fluorophenyl)-2,2-dimethylchroman-4-yl)carbamate] | 145 nM |  | 
30 | CC1(C)COc2cc(-c3ccc(N4CCOCC4)c(F)c3)ccc2C1NC(=O)O[C@@H]1CN2CCC1CC2 (stereo partly drawn) [Example 204, (S)-quinuclidin-3-yl (7-(3-fluoro-4-morpholinophenyl)-3,3-dimethylchroman-4-yl)carbamate] |  |  | 0.31 nM
